Test [1] has as its target T1, androgen receptor (AR) (Homo sapiens, UniProt P10275).
T1 sequence (P10275 1-920): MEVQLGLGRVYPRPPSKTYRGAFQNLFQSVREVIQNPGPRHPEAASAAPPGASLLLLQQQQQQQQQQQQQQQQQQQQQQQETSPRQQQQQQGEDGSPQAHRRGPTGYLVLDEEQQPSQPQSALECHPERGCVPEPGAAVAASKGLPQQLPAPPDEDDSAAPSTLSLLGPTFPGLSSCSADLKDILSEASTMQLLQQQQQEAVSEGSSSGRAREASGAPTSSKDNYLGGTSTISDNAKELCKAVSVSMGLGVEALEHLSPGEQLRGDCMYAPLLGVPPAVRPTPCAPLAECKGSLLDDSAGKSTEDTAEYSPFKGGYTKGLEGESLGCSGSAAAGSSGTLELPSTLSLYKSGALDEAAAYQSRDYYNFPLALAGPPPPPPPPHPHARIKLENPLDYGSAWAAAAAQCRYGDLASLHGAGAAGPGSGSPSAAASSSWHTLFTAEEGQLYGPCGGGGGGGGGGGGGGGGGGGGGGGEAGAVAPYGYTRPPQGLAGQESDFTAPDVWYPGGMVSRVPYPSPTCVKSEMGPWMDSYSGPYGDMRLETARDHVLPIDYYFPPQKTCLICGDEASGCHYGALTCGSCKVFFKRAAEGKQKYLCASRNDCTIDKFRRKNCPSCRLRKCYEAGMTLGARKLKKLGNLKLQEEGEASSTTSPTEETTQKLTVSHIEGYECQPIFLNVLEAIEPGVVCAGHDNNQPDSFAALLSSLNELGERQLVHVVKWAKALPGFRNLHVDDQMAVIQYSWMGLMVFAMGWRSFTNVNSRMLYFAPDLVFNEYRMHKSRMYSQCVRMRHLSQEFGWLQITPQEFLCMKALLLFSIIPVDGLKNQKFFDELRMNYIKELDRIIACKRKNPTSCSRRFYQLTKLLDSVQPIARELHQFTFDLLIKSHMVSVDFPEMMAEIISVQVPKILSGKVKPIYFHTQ
The test can be described thus: MDA-MB-453 Androgen Receptor Transactivation Assay (PSA-Luc reporter, 3 nM DHT). The test is classed as cell-based. The note with it: MDA-MB-453 cells, antagonism in presence of 3 nM DHT, 48 hour incubation. An excerpt: Compounds can be tested in a cell based transactivation assay used to measure the antagonism of androgen receptor (AR) transcriptional activity. The transactivation assay provides a means of identifying antagonists that inhibit the effects of the native hormone dihydrotestosterone (DHT). […] The pGL3 PSA-Luc reporter plasmid is comprised of the cDNA for the firefly luciferase gene and the upstream promoter sequences containing the androgen response elements (AREs) of the prostate specific antigen (PSA). This plasmid functions as a reporter for the transcription-modulating activity of the AR. In order to detect antagonists, the transactivation assay is conducted in the presence of constant concentration of the natural AR hormone (DHT) to induce a defined reporter signal. Addition of increasing concentrations of the suspected antagonist will decrease the reporter signal (luciferase activity).
MDA-MB-453 and 22 RV1 cells were maintained in DMEM (Cellgro, Cat. #10-014-CM) or RPMI 1640 (Gibco Cat. #11875-085) respectively and supplemented with 10% FBS (Invitrogen/GIBCO Life Science). Cells were bulk transfected in flasks with 1.3 ug/ml pGL3 PSA-Luc plasmid by using the Lipofectamine 2000 Reagent (Invitrogen, Cat. #11668-019) and serum-free Opti-MEM I media (Invitrogen, Cat #31985-070) according to the manufacturer's optimized conditions. Transfection was conducted at 37° C. with 5% CO2 for 16-18 hours. Following transfection, cells are washed, treated with trypsin, counted, and seeded in a 96-well plate at 30,000 cells per well in DMEM containing 10% Charcoal/Dextran Treated Fetal Bovine Serum (Gibco Cat. #11054-020) for MDA-MB-453 cells or RPMI 1640 (Gibco Cat. #110835) containing 10% FBS (Invitrogen/GIBCO Life Science) for 22 RV1 cells.
Following transfection, cells were incubated in the absence (blank) or presence (control) of 3 nM DHT (Sigma, Cat. #A-8380) and in the presence or absence of the standard antiandrogen bicalutamide or test compounds ranging in concentrations from 10^−10 to 10^−5M. Duplicates were used for each sample. The compound dilutions were performed by the Tecan Genesis (Tecan, Triangle Park, N.C.). After a 48 hour incubation, luciferase activity was measured using the Steady-Glo Luciferase Assay System (Promega, Cat. #E2550) according to manufacturer's specifications and luminescence was measured on a Packard TopCount (PerkinElmer). For each luciferase sample reading, the percent control (in absence of compounds) was calculated as: % Control=100×[averagesample−averageblank]/[averagecontrol−averageblank] Data was plotted and the IC50 value was defined as the concentration of compound that inhibited 50% of the luciferase activity for the controls.
Compounds described herein were tested in the AR transactivation assay described immediately above, using MDA-MB-453 cells.

The subject of test [2] is immature castrated male rats. The test can be described thus: Immature Rat Prostate Weight (IRPW) Assay. Type of test: in vivo, rat (Sprague-Dawley). Conditions: for response vs control in vivo at 3 mg/kg: Rattus norvegicus, 96 h, read-out: IRPW SV/FB (% control); for EC50 (increase in organ weight, VP and SV): dosing for 3 days.
[3] abbreviates: immature castrated rats, 3 mpk PO QD × 4 days.

Read-outs that look alike come from different tables or passages of the source.

As for `C[C@@]12C[C@H](O)[C@]3(CCO[C@H]4[C@@H]3[C@@H]1C(=O)N4c1ccc(Cl)c(Cl)c1)O2` [Example 113, (1R,2S,4R,5S,8S,12R)-7-(3,4-dichlorophenyl)-2-hydroxy-4-methyl-9,13-dioxa-7-azatetracyclo[6.3.1.1^1,4.0^5,12]tridecan-6-one], the IC50 in test [1] (read-out: IC50) is 1340 nM. For the same compound, the response vs control in vivo at 3 mg/kg in test [2] (setting [3]) worked out at 68%.

For the compound `COC(=O)N[C@@H]1C[C@@]23CCO[C@H]4[C@@H]2[C@H](C(=O)N4c2ccc(C#N)c(C(F)(F)F)c2)[C@]1(C)O3` [Example 207, Methyl ((1R,3R,4S,5S,8S,12R)-7-(4-cyano-3-(trifluoromethyl)phenyl)-4-methyl-6-oxo-9,13-dioxa-7-azatetracyclo[6.3.1.1^1,4.0^5,12]tridec-3-yl)carbamate], the IC50 in test [1] is 54 nM. In test [2] (po), the response vs control in vivo at 3 mg/kg is 37%.

`C[C@@]12C[C@H](O)[C@]3(CCO[C@H]4[C@@H]3[C@@H]1C(=O)N4c1ccc(C#N)c(Br)c1)O2` [Example 66, 2-Bromo-4-((1R,2S,4R,5S,8S,12R)-2-hydroxy-4-methyl-6-oxo-9,13-dioxa-7-azatetracyclo[6.3.1.1^1,4.0^5,12]tridec-7-yl)benzonitrile]: the IC50 in test [1] (read-out: IC50) stood at 195 nM. Besides, in test [2] (setting [3]), the response vs control in vivo at 3 mg/kg amounted to 38%.

On to `CCC(=O)N[C@H]1C[C@@]23CCO[C@H]4[C@@H]2[C@H](C(=O)N4c2ccc(C#N)c(C(F)(F)F)c2)[C@]1(C)O3` [Example 236, N-((1R,3S,4S,5S,8S,12R)-7-(4-cyano-3-(trifluoromethyl)phenyl)-4-methyl-6-oxo-9,13-dioxa-7-azatetracyclo[6.3.1.1^1,4.0^5,12]tridec-3-yl)propanamide], for which, in test [1], the IC50 was found to be 104 nM. Moreover, in test [2] (po), the response vs control in vivo at 3 mg/kg was 62%.

Consider `CCC(=O)O[C@H]1CC[C@H]2[C@@H]3CCC4=CC(=O)CC[C@]4(C)[C@H]3CC[C@]12C` [TP, Testosterone Propionate, reference compound], for which the “potency relative to free T” value in test [2] (TP versus free T, immature castrated rats) is recorded as 10-30 fold. Moreover, the “EC50 (increase in organ weight, VP and SV)” value in test [2] (immature castrated rats) was about 0.03 mg.

For the compound `C[C@@]12C[C@@H](O)[C@]3(CCO[C@H]4[C@@H]3[C@@H]1C(=O)N4c1ccc(C#N)c(C(F)(F)F)c1)O2` [Example 6, 4-((1R,2R,4R,5S,8S,12R)-2-hydroxy-4-methyl-6-oxo-9,13-dioxa-7-azatetracyclo[6.3.1.1^1,4.0^5,12]tridec-7-yl)-2-(trifluoromethyl)benzonitrile], in test [1], the half-inhibitory concentration (IC50) was 281 nM. For the same compound, the response vs control in vivo at 3 mg/kg in test [2] (po) was found to be 37%.

Regarding `C[C@@]12C[C@H](O)[C@]3(CCO[C@H]4[C@@H]3[C@@H]1C(=O)N4c1cnc(C#N)c(C(F)(F)F)c1)O2` [Example 267, 5-((1R,2S,4R,5S,8S,12R)-2-hydroxy-4-methyl-6-oxo-9,13-dioxa-7-azatetracyclo[6.3.1.1^1,4.0^5,12]tridec-7-yl)-3-(trifluoromethyl)-2-pyridinecarbonitrile], the IC50 in test [1] (read-out: IC50) was found to be 427 nM. The response vs control in vivo at 3 mg/kg in test [2] (setting [3]) is 40%.

For `COC(=O)N[C@@H]1C[C@]23CCO[C@@H]4[C@H]2[C@@H](C(=O)N4c2ccc(C#N)c(C(F)(F)F)c2)[C@@]1(C)O3` [Example 14, Methyl ((1S,3R,4R,5R,8R,12S)-7-(4-cyano-3-(trifluoromethyl)phenyl)-4-methyl-6-oxo-9,13-dioxa-7-azatetracyclo[6.3.1.1^1,4.0^5,12]tridec-3-yl)carbamate], the IC50 in test [1] came out at 185 nM. In addition, in test [2] (po), the response vs control in vivo at 3 mg/kg came out at 35%.

As for `C[C@]12O[C@@]3(CCO[C@H]4[C@@H]3[C@@H]1C(=O)N4c1ccc(C#N)c(C(F)(F)F)c1)C[C@@H]2O` [Example 156, 4-((1S,3S,4S,5S,8S,12R)-3-hydroxy-4-methyl-6-oxo-9,13-dioxa-7-azatetracyclo[6.3.1.1^1,4.0^5,12]tridec-7-yl)-2-(trifluoromethyl)benzonitrile], the IC50 in test [1] amounted to 304 nM. Also, the response vs control in vivo at 3 mg/kg in test [2] (po) was 64%.

As for `COC(=O)N[C@@H]1C[C@@]23CCO[C@H]4[C@@H]2[C@H](C(=O)N4c2cc(Cl)c(C#N)c(Cl)c2)[C@]1(C)O3` [Example 208, Methyl ((1R,3R,4S,5S,8S,12R)-7-(3,5-dichloro-4-cyanophenyl)-4-methyl-6-oxo-9,13-dioxa-7-azatetracyclo[6.3.1.1^1,4.0^5,12]tridec-3-yl)carbamate], the IC50 in test [1] was determined as 118 nM. In test [2] (po), the response vs control in vivo at 3 mg/kg stood at 37%.

As to `C[C@@]12CC[C@]3(CCO[C@H]4[C@@H]3[C@@H]1C(=O)N4c1ccc(C#N)c(C(F)(F)F)c1)O2` [Example 50, 4-((1R,4R,5S,8S,12R)-4-methyl-6-oxo-9,13-dioxa-7-azatetracyclo[6.3.1.1^1,4.0^5,12]tridec-7-yl)-2-(trifluoromethyl)benzonitrile], in test [1], the IC50 stood at 42 nM. Moreover, in test [2] (po), the response vs control in vivo at 3 mg/kg worked out at 46%.

As for `C[C@]12O[C@@]3(CCO[C@H]4[C@@H]3[C@@H]1C(=O)N4c1cc(F)c(C#N)c(C(F)(F)F)c1)C[C@H]2O` [Example 139, 2-Fluoro-4-((1S,3R,4S,5S,8S,12R)-3-hydroxy-4-methyl-6-oxo-9,13-dioxa-7-azatetracyclo[6.3.1.1^1,4.0^5,12]tridec-7-yl)-6-(trifluoromethyl)benzonitrile], the IC50 in test [1] turned out to be 60 nM. For the same compound, in test [2] (po), the response vs control in vivo at 3 mg/kg was found to be 35%.

In the case of `CCS(=O)(=O)N[C@H]1C[C@@]2(C)O[C@@]13CCO[C@H]1[C@@H]3[C@@H]2C(=O)N1c1ccc(C#N)c(Br)c1` [Example 179, N-((1R,2S,4R,5S,8S,12R)-7-(3-Bromo-4-cyanophenyl)-4-methyl-6-oxo-9,13-dioxa-7-azatetracyclo[6.3.1.1^1,4.0^5,12]tridec-2-yl)ethanesulfonamide], the IC50 in test [1] (read-out: IC50) amounted to 141 nM. Further, in test [2] (setting [3]), the response vs control in vivo at 3 mg/kg came out at 31%.

Consider `C[C@]12CC[C@H]3[C@@H](CCC4=CC(=O)CC[C@@]43C)[C@@H]1CC[C@@H]2O` [T, testosterone, reference compound], for which the “EC50 (increase in organ weight, VP and SV)” value in test [2] (immature castrated rats) is listed as “about 1 mg”.

`Cc1c(N2C(=O)[C@H]3[C@H]4[C@@H]2OCC[C@]42C[C@@H](O)[C@@]3(C)O2)ccc(C#N)c1C(F)(F)F` [Example 142, 4-((1S,3R,4S,5S,8S,12R)-3-hydroxy-4-methyl-6-oxo-9,13-dioxa-7-azatetracyclo[6.3.1.1^1,4.0^5,12]tridec-7-yl)-3-methyl-2-(trifluoromethyl)benzonitrile]: in test [1], the IC50 was 950 nM.

In general, IC50 refers to the concentration needed to halve the response being measured.
